T1: galactosamine-6-sulfatase (GALNS) (Homo sapiens, UniProt P34059)
T1 sequence (P34059 27-522): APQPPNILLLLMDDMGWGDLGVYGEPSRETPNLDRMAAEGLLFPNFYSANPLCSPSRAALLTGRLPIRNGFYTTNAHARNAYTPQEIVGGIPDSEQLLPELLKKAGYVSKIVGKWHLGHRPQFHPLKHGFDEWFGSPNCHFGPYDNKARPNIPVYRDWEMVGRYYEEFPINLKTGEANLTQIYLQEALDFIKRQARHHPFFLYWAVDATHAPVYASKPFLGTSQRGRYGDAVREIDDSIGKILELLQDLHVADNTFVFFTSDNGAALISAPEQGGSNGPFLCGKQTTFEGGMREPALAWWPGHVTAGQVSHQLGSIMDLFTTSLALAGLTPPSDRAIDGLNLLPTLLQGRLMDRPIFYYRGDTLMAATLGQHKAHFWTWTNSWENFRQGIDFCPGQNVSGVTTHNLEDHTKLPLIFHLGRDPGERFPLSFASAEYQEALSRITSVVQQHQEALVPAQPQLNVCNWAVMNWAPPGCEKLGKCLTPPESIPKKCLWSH


Legend:
[1] = target: T1, galactosamine-6-sulfatase (GALNS); experiment: biochemical
[2] = substrate: Cc1cc(=O)oc2cc(O[C@@H]3O[C@H](COS(=O)(=O)O)[C@H](O)[C@H](O)[C@H]3O)ccc12; assay type: biochemical, Homo sapiens; conditions: Ca2+; Cys79 modified to formylglycine/dihydroxyalanine (DHA) active site

Ki [1] [µM]	Molecule	Km [2] [mM]
570 ± 150	O=S(=O)(O)O [sulfate]	–
–	galactosamine-6-sulfatase (GALNS) (Homo sapiens) (protein) APQPPNILLLLMDDMGWGDLGVYGEPSRETPNLDRMAAEGLLFPNFYSANPLCSPSRAALLTGRLPIRNGFYTTNAHARNAYTPQEIVGGIPDSEQLLPELLKKAGYVSKIVGKWHLGHRPQFHPLKHGFDEWFGSPNCHFGPYDNKARPNIPVYRDWEMVGRYYEEFPINLKTGEANLTQIYLQEALDFIKRQARHHPFFLYWAVDATHAPVYASKPFLGTSQRGRYGDAVREIDDSIGKILELLQDLHVADNTFVFFTSDNGAALISAPEQGGSNGPFLCGKQTTFEGGMREPALAWWPGHVTAGQVSHQLGSIMDLFTTSLALAGLTPPSDRAIDGLNLLPTLLQGRLMDRPIFYYRGDTLMAATLGQHKAHFWTWTNSWENFRQGIDFCPGQNVSGVTTHNLEDHTKLPLIFHLGRDPGERFPLSFASAEYQEALSRITSVVQQHQEALVPAQPQLNVCNWAVMNWAPPGCEKLGKCLTPPESIPKKCLWSH	13 ± 2

From PMC3472114 (Journal of molecular biology, 2012)
